# Source: US6340588B1, “Matrices with memories” (Discovery Partners International, Inc., priority 1995, dated 2002)
# Target: 125I-streptavidin (Streptomyces avidinii, UniProt P22629)
# Sequence (P22629 25-183): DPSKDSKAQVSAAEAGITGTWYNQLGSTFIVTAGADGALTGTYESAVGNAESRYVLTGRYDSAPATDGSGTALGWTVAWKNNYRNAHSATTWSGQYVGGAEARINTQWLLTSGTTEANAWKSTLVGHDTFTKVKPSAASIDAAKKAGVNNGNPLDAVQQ
smiles,measurement,value
O=C1NCC(C(=O)O)N1 (stereo not shown) [2-imidazolidone-4-carboxylic acid],signal in scintillation proximity assay (binding to 125I-streptavidin),lower signal
